{"source": "patent EP2365091A1", "about": "“Method of screening for HtrA protease inhibitors useful for prophylaxis and therapy of a bacterial infection” (Paul-Ehrlich-Institut, priority 2010, dated 2011)", "key": {"MKN-28 cells [1]": {"tested_on": "MKN-28 cells", "test": "Co-immunoprecipitation of β-Catenin and p120ctn in Hp-infected cells", "type": "cell-based, human", "conditions": "Hp 6 h, 100 µM HHI (Fig. 5B)", "description": "Interaction between β-Catenin and p120^ctn was analyzed by co-immunoprecipitation studies. Cells were lysed and β-Catenin and p120^ctn were immunoprecipitated from cell lysates. Immobilized protein complexes were washed three times with lysis buffer, boiled in Laemmli buffer, separated by SDS-PAGE, and blotted on membranes."}, "interleukin-8 (IL-8)": {"tested_on": "interleukin-8 (IL-8)", "test": "Interleukin-8 (IL-8) ELISA", "type": "cell-based, human", "conditions": "MKN-28, Hp 8 h, 16 h and 36 h, 100 µM HHI (Fig. 12B)", "description": "Determination of IL-8 release was performed by applying a commercially available IL-8 specific ELISA assay system (Bender Medsystems, eBioscience Inc., San Diegeo, CA, USA). In brief, MKN-28 cells were incubated with Hp 8-36 h. Cell culture supernatants were collected, centrifuged, and stored at -80°C for subsequent IL-8 quantification. The IL-8 release was determined as recommend by the manufacturer's instructions."}, "TCF/LEF1": {"tested_on": "TCF/LEF1", "test": "TOPflash/FOPflash luciferase reporter gene experiment", "type": "cell-based, human", "conditions": "MKN-28, Hp 24 h, 50 µM HHI (Fig. 5C)", "description": "MKN-28 cells were cultured in 24-well plates and grown to 60% confluence. Cells were transfected with 100 ng TOPflash or 100 ng FOPflash (Upstate, Millipore, Bad Schwalbach/Taunus, Germany) and 4 ng phRL Null. As a positive control, cells were co-transfected with 100 ng β-Catenin (β-Cat^S33A) or empty vector for 12 h using Gene Juice transfection reagent (Novagen, Merck, Darmstadt, Germany) as recommended by the manufacturer's instructions. Eighteen hours after transfection, cells were infected with Hp at an MOI of 50, or left untreated. In further approaches, cells were incubated with 50 ng/µl HtrA^wt or HtrA^S205A mutant. After 24 h, cells were harvested in 100 µl reporter lysis buffer (Promega) and luciferase activity was determined in a dual channel luminometer. Results were normalized for transfection efficiency of cotransfected renilla luciferase plasmid."}, "HtrA": {"tested_on": "HtrA", "test": "In vitro cleavage of recombinant E-Cadherin by HtrA (Western blot)", "type": "biochemical, Helicobacter pylori", "conditions": "100 ng recombinant E-Cadherin, 100 ng/µl HtrA, 16 h", "description": "(§1) For in vitro cleavage studies, recombinant E-Cadherin, EGFR and JAM chimera, IgA or Casein, (R&D Systems, Wiesbaden, Germany) were incubated with HtrA^wt, HtrA^S205A or MMP7 in 50 mM HEPES (pH 7.4) at 37°C for 16 h. Where indicated, HHI or MMP inhibitor II were added. Reactions were stopped by boiling in Laemmli buffer, followed by 8% SDS-PAGE and Western blotting."}, "MKN-28 cells [2]": {"tested_on": "MKN-28 cells", "test": "Cell aggregation assay", "type": "cell-based, human", "conditions": "50 ng/µl HtrAwt plus 100 µM HHI (Fig. 4E)", "description": "For cell aggregation assays, 2 x 10^5 cells were trypsinized and seeded into BSA-coated 24-well plates, each well containing 500 µl of cell aggregation buffer (10 mM HEPES (pH 7.4), 150 mM NaCl, 0.7 mM CaCl2, 1% BSA, 0.01% trypsin). After stimulation at 37°C for 30 min on a rocking platform, cells were fixed in 500 µl of 4% paraformaldehyde for 20 min and observed using an inverse phase-contrast microscope."}, "Hp [3]": {"tested_on": "Hp", "test": "Hp translocation through the intercellular space of confluent monolayers (confocal microscopy, filter CFU)", "type": "cell-based, Helicobacter pylori", "description": "(§2) Hp strains Hp26695 and P12 were cultured on agar plates containing 10% horse serum under microaerophilic conditions at 37°C for 48 hours. For infection, bacteria were harvested in PBS Dulbecco's medium, pH 7.4, added to the host cells at a multiplicity of infection (MOI) of 50 or 100 for the indicated time periods and monitored using an inverse phase-contrast microscope (model TS 100, INTAS). To quantify bacteria translocating through cellular monolayers, MKN-28 cells were grown to confluence on filters prior to infection with Hp for 48 h. Translocating Hp were cultured and CFU were counted. All experiments were repeated 3-4 times.\nFor immunofluorescence staining, cells were grown for 24 h on glass coverslips, then fixed (4% paraformaldehyde in PBS), and permeabilized (0.2% Triton X-100 in PBS). Immunostaining was performed using anti-E-Cadherin (cl. 36 detects the intracellular domain, BD Biosciences), anti-E-Cadherin (HecD-1 detects the extracellular domain), ZO-1 (Invitrogen), anti-CagA (Immunological and Biochemical Testsystems GmbH, Reutlingen, Germany), anti-β1-integrin and anti-Hp. Secondary antibodies were labeled with Alexa-488 or Alexa-546 (Invitrogen). Filamentous actin was detected with Alexa Fluor 546-conjugated phalloidin (Invitrogen). […] Samples were analyzed by confocal laser scanning microscopy using a Zeiss LSM 510 Meta confocal microscope. […]"}, "CagA": {"tested_on": "CagA", "test": "CagA injection and phosphorylation in infected monolayers (Western blot)", "type": "cell-based, Helicobacter pylori", "conditions": "MKN-28 monolayers", "description": "Cells were harvested in lysis buffer (20 mM Tris-HCl, pH 7.5, 1 mM ETDA, 100 mM NaCl, 1% Triton X-100, 0.5 % sodium deoxycholate, 0.1% SDS, 1 x complete protease inhibitors (Roche, Basel, Switzerland), 1 mM Na3VO4, 1 mM sodium molybdate, 20 mM NaF, 10 mM sodium pyrophosphate, 20 mM β-glycerophosphate) and separated by SDS-PAGE. Proteins were transferred onto PVDF membranes, blocked with RotiBlock (Roth, Karlsruhe, Germany), and probed with anti-E-Cadherin cl. 36 (detects intracellular E-Cadherin domain). To detect CTF1 and CTF2 by Western blots an anti-E-Cadherin polyclonal antibody from Cell Signaling Technologies , Danvers, MA, USA] was used. Quantification of CTF and NTF fragments was performed using the Fusion FX-7 image analyzer and Bio-1D analysis software (Vilber Lourmat Deutschland GmbH, Eberhardzell, Germany). Monoclonal antibodies HecD1 and H-108 against the extracellular domain of E-Cadherin (NTF) were obtained from Calbiochem, Merck, Darmstadt, Germany and Santa Cruz, Santa Cruz, CA, USA, respectively. Expression of Occludin, ZO-1 (Invitrogen), JAM1, β-Catenin, p120^ctn (BD Biosciences, New Jersey, USA), ADAM10, EGFR (Santa Cruz), GAPDH (Abcam, Cambridge, UK), β-Actin (Sigma), CagA (Aalto Bio Reagents Ltd., Dublin, Ireland) was analyzed using specific antibodies. […]"}, "MMP-7": {"molecular_target": "T1, MMP-7 (Homo sapiens, UniProt P09237)", "T1 sequence (P09237 95-267)": "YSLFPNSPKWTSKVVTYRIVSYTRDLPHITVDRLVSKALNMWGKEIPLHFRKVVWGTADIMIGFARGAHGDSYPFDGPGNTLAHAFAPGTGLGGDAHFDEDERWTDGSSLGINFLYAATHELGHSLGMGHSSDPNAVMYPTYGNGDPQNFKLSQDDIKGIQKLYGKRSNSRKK", "test": "In vitro cleavage of recombinant E-Cadherin by MMP-7 (Western blot)", "type": "biochemical", "conditions": "5 ng/µl MMP-7, 16 h, 100 µM HHI (Fig. 11E)", "description": "as §1"}, "MKN-28 cells [4]": {"tested_on": "MKN-28 cells", "test": "Hp-induced ectopic E-Cadherin shedding in infected cells (Western blot of supernatants and lysates)", "type": "cell-based, human", "conditions": "100 µM HHI", "description": "The human gastric adenocarcinoma cell line MKN-28 was grown in RPMI1640 medium (Biochrom, Berlin, Germany) and human breast cancer cells (MCF-7) in DMEM medium (Biochrom) containing 4 mM glutamine (Invitrogen, Karlsruhe, Germany]), and 10% FCS (Biowest, Nuaillé, France) in a humidified 5% CO2 (MKN-28) or 10% CO2 (MCF-7) atmosphere at 37°C. Cells were seeded in tissue culture plates 48 hours before infection and grown to confluence. 1-2 h hours prior to infection, medium was replaced by fresh serum-free media. Where indicated, cells were incubated with indicated concentrations of HHI or MMP inhibitor II (blocks MMP1, MMP3, MMP7 and MMP9) (Calbiochem, Merck , Darmstadt, Germany).\nas §2, with “times. […]” for “times.”"}, "MCF-7": {"tested_on": "MCF-7", "test": "In-situ immunofluorescence of E-Cadherin in Hp-infected cells", "type": "cell-based, human", "conditions": "MCF-7, Hp 16 h, 100 µM HHI (Fig. 5A)", "description": "(§3) For immunofluorescence staining, cells were grown for 24 h on glass coverslips, then fixed (4% paraformaldehyde in PBS), and permeabilized (0.2% Triton X-100 in PBS). Immunostaining was performed using anti-E-Cadherin (cl. 36 detects the intracellular domain, BD Biosciences), anti-E-Cadherin (HecD-1 detects the extracellular domain), ZO-1 (Invitrogen), anti-CagA (Immunological and Biochemical Testsystems GmbH, Reutlingen, Germany), anti-β1-integrin and anti-Hp. Secondary antibodies were labeled with Alexa-488 or Alexa-546 (Invitrogen). Filamentous actin was detected with Alexa Fluor 546-conjugated phalloidin (Invitrogen). For nuclei staining, 4',6-diamin-2-phenylin-dol-dihydrochloride (DAPI, Roche) was used as recommended by the manufacturer's instructions. Samples were analyzed by confocal laser scanning microscopy using a Zeiss LSM 510 Meta confocal microscope. Images were further processed using Corel Photopaint."}, "β1-integrin": {"tested_on": "β1-integrin", "test": "Confocal microscopy of phospho-CagA and β1-integrin co-localization", "type": "cell-based", "conditions": "Hp-infected cells, preincubation with 100 µM HHI (Fig. 7C)", "description": "as §3"}, "Hp [5]": {"tested_on": "Hp", "test": "Hp adherence and viability, colony forming units after infection of MKN-28 cells", "type": "cell-based, Helicobacter pylori", "description": "For secretome analysis, Hp was grown in protein-free liquid brain heart infusion (BHI) medium (Merck) supplemented with β-cyclodextrin for 48 hours (Bumann et al., 2002). Supernatants of Hp BHI cultures were sterilized by filtration. Lysates of Hp were obtained by sonication in PBS containing 0.1% Triton X-100. To quantify colony forming units (CFU) of Hp, cells were infected with Hp in the presence or absence of HHI. After 16-24 h cells were washed twice with PBS, harvested in BHI supplemented with β-cyclodextrin and seeded on Hp plates. After 72 h, colonies were counted."}}, "note": "Entries after “also recorded” stand apart in the source; their conditions may differ.", "data": [{"smiles": "CCOc1ccc2nc(NC(=O)CSc3nnc(-c4ccc(S(=O)(=O)N5CCCC5)cc4)o3)sc2c1", "note": "[HHI]", "values": [{"measurement": "loss of β-Catenin in the precipitated p120ctn immunocomplex upon Hp infection", "setting": "MKN-28 cells [1]", "value": "not reverted"}, {"measurement": "T4SS-dependent secretion of interleukin-8 (IL-8) of Hp-infected cells", "setting": "interleukin-8 (IL-8)", "value": "unaffected"}, {"measurement": "Hp-induced luciferase activity (TOP/FOP)", "setting": "TCF/LEF1", "value": "unaffected"}, {"measurement": "HHI concentration sufficient to partly block HtrA-mediated E-Cadherin cleavage", "setting": "HtrA", "value": 10, "unit": "µM"}, {"measurement": "HHI concentration that blocked cleavage completely", "setting": "HtrA", "value": 30, "unit": "µM"}, {"measurement": "E-Cadherin-mediated cell aggregation of HtrAwt-treated cells", "setting": "MKN-28 cells [2]", "value": "did not form aggregates, unless HHI was also added"}, {"measurement": "Hp invasion through the intercellular space of confluent MKN-28 cells growing on filters", "setting": "Hp [3]; 100 µM HHI, Hp 48 h, CFU counted, p = 0.01 (Fig. 6B)", "value": "significantly inhibited"}, {"measurement": "number of translocating bacteria in intercellular spaces", "setting": "Hp [3]; MKN-28 monolayers, confocal microscopy, 48 h, 100 µM HHI (Fig. 6A)", "value": "greatly reduced"}, {"measurement": "amount of total CagA", "setting": "CagA; 100 µM HHI preincubation (Fig. 7A)", "value": "not altered"}, {"measurement": "injected phospho-CagA in Hp-infected cells", "setting": "CagA; 100 µM HHI preincubation, 16 h and 24 h (Fig. 7A)", "value": "decreased"}, {"measurement": "MMP7-mediated E-Cadherin cleavage activity", "setting": "MMP-7", "value": "did not affect"}, {"measurement": "secretion of HtrA into the infected cell supernatant", "setting": "MKN-28 cells [4]; 16 and 24 h (Fig. 4D)", "value": "could be excluded"}, {"measurement": "Hp-induced ectopic E-Cadherin cleavage in infected MKN-28 cells", "setting": "MKN-28 cells [4]; Hp infection 16 and 24 h (Fig. 4D)", "value": "clearly inhibited"}, {"measurement": "Hp-induced loss of E-Cadherin-dependent intercellular adhesion", "setting": "MCF-7", "value": "blocks; also recorded: efficiently blocked"}, {"measurement": "co-localization of phospho-CagA with β1-integrin at the basolateral membrane", "setting": "β1-integrin", "value": "efficiently prevented"}, {"measurement": "Hp adherence and Hp viability", "setting": "Hp [5]; 100 µM HHI (Fig. 11C)", "value": "could be excluded; also recorded: not affecting"}, {"measurement": "relative CFU colony forming units (CFU)", "setting": "Hp [5]; 100 µM HHI, 16 h and 24 h infection, colonies counted after 72 h (Fig. 11C)", "value": "no significant difference"}]}]}
